Reference: patent US20150246025A1, “2-PHENYL-5-HETEROCYCLYL-TETRAHYDRO-2H-PYRAN-3-AMINE COMPOUNDS FOR USE IN THE TREATMENT OF DIABETES AND ITS ASSOCIATED DISORDERS” (CADILA HEALTHCARE LIMITED, priority 2012, published 2015)

Assays:
[1] = tested on: C57BL/6J mice; assay: In vivo antihyperglycaemic/antidiabetic activity (OGTT), acute single dose 120-min time-course; conditions: Mus musculus, 2 h; male C57BL/6J mice, acute single dose 0,3 mg/kg po, 120-min time-course, n = 6, Mean ± SEM; read-out: In vivo OGTT C57; % Glucose change
Protocol: Acute single dose 120-min time-course experiments were carried out in male C57BL/6J mice, age 8-12 weeks, bred in-house. Animals were housed in groups of 6 animals per cage, for a week, in order to habituate them to vivarium conditions (25±4° C., 60-65% relative humidity, 12: 12 h light: dark cycle, with lights on at 7.30 am). All the animal experiments were carried out according to the internationally valid guidelines following approval by the ‘Zydus Research Center animal ethical committee’.
The in-vivo glucose lowering properties of the test compounds were evaluated in C57BL/6J (mild hyperglycemic) animal models as described below. Two days prior to the study, the animals were randomized and divided into groups (n=6), based upon their fed glucose levels. On the day of experiment, food was withdrawn from all the cages, water was given ad-libitum and were kept for overnight fasting. Vehicle (normal saline)/test compounds were administered orally, on a body weight basis. Soon after the 0 min. blood collection from each animal, the subsequent blood collections were done at 30, 60 and 120 or upto 240 min., via retro-orbital route, under light ether anesthesia (Diabetes Obesity Metabolism, 7, 307, 2005; Diabetes, 52, 751, 2003).
Blood samples were centrifuged and the separated serum was immediately subjected for the glucose estimation. Serum for insulin estimation was stored at −70° C. until used for the insulin estimation. The glucose estimation was carried out with DPEC-GOD/POD method (Ranbaxy Fine Chemicals Limited, Diagnostic division, India), using Spectramax-190, in 96-microwell plate reader (Molecular devices Corporation, Sunnyvale, Calif.). […] The AUC and BCAUC obtained from graphs were analyzed for one way ANOVA, followed by Dunnett's post test, using Graph Pad prism software.

[2] = molecular target: T1, DPP-IV enzyme (Homo sapiens, UniProt P27487); assay: In vitro DPP-IV inhibitory activity using enzymatic (fluorescence-based) assay; format: biochemical; conditions: soluble human DPP-IV, H-Gly-Pro-AMC 200 μM, pH 7.8, 25° C., 30 min; read-out: % In-vitro DPPIV Inhibition IC50
T1 construct: soluble human proteins (DPP-IV enzyme) produced in a baculovirus expression system; made in house; host or cells: baculovirus expression system (Life Technologies)
Protocol: In Vitro DPP-IV Inhibitory Activity Using Enzymatic Assay:
In vitro enzyme (DPP-IV) inhibitory activity was determined using fluorescence-based assay (Anal. Biochem., 200, 352, 1992). The Gly-Pro-AMC was used as a substrate (which is cleaved by the enzymes to release the fluorescent AMC) and soluble human proteins (DPP-IV enzyme) produced in a baculovirus expression system (Life Technologies) was used as the enzyme source. The H-Gly-Pro-AMC (200 μM) was incubated with DPP-IV enzyme in the presence of various concentrations (30 & 100 nM) of test compounds. Reaction was carried out at pH 7.8 (HEPES buffer 25 mM containing 1.0% BSA, 140 mM NaCl, 16 mM MgCl2, 2.8% DMSO) in a total volume of 100 μl at 25° C. for 30 min., in the dark. Reaction was terminated with acetic acid (25 μl of 25% solution). Activity (fluorescence) was measured using Spectra Max fluorometer (Molecular Devices, Sunnyvale Calif.) by exciting at 380 nm and emission at 460 nm.

T1 sequence (P27487 39-766 limits assumed): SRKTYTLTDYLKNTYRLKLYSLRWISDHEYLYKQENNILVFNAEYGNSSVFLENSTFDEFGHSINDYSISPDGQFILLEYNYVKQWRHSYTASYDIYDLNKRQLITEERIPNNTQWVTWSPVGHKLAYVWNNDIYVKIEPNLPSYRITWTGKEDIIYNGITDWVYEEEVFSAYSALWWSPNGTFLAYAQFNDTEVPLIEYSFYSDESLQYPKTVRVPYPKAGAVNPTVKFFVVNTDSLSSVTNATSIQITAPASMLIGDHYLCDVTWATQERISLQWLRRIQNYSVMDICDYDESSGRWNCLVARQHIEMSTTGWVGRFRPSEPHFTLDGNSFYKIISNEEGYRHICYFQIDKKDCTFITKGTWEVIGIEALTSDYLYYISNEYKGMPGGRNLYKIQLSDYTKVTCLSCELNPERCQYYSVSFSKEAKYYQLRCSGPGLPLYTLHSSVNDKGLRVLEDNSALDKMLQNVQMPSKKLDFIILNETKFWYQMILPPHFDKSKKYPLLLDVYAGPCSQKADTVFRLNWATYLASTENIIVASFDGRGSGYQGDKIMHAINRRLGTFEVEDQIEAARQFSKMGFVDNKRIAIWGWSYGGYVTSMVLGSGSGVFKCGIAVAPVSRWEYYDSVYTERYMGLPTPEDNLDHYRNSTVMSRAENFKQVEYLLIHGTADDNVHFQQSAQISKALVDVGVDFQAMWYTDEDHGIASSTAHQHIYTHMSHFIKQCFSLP

Structure (SMILES)	IC50 [2] [µM]	change in vivo at 0.3 mg/kg [1] [%]
CN(C)S(=O)(=O)N1CC2CN([C@H]3CO[C@H](c4cc(F)ccc4F)[C@@H](N)C3)CC2C1 (stereo partly drawn) [Compound 7, 5-((3R,5S,6R)-5-amino-6-(2,5-difluorophenyl)tetrahydro-2H-pyran-3-yl)-N,N-dimethylhexahydropyrrolo[3,4-c]pyrrole-2(1H)-sulfonamide]	< 0.01	-7.9 ± 1.2
CN(C)S(=O)(=O)N1CC2=C(CN([C@H]3CO[C@H](c4cc(F)ccc4F)[C@@H](N)C3)C2)C1 [Compound 9, 5-((3R,5S,6R)-5-amino-6-(2,5-difluorophenyl)tetrahydro-2H-pyran-3-yl)-N,N-dimethyl-3,4,5,6-tetrahydropyrrolo[3,4-c]pyrrole-2(1H)-sulfonamide]	< 0.01	-34.7 ± 4.4
N[C@H]1C[C@@H](N2CC3C(=O)N(C4CC4)C(=O)C3C2)CO[C@@H]1c1cc(F)ccc1F (stereo partly drawn) [Compound 10, 5-((3R,5S,6R)-5-amino-6-(2,5-difluorophenyl)tetrahydro-2H-pyran-3-yl)-2-cyclopropyltetrahydropyrrolo[3,4-c]pyrrole-1,3(2H,3aH)-dione]	< 0.1	-12.5 ± 1.3
CS(=O)(=O)N1CCC2CN([C@H]3CO[C@H](c4cc(F)ccc4F)[C@@H](N)C3)CC2C1 (stereo partly drawn) [Compound 12, (2R,3S,5R)-2-(2,5-difluorophenyl)-5-(5-(methylsulfonyl)hexahydro-1H-pyrrolo[3,4-c]pyridin-2(3H)-yl)tetrahydro-2H-pyran-3-amine]	< 0.1	-9.8 ± 1.5
CS(=O)(=O)N1CC2CCN([C@H]3CO[C@H](c4cc(F)ccc4F)[C@@H](N)C3)CC2C1 (stereo partly drawn) [Compound 13, (2R,3S,5R)-2-(2,5-difluorophenyl)-5-(2-(methylsulfonyl)hexahydro-1H-pyrrolo[3,4-c]pyridin-5(6H)-yl)tetrahydro-2H-pyran-3-amine]	< 0.01	-26.4 ± 1.6
Cc1ccc(S(=O)(=O)N=S(C)(=O)N2CC3=C(CN([C@H]4CO[C@H](c5cc(F)ccc5F)[C@@H](N)C4)C3)C2)cc1 (stereo partly drawn) [Compound 49, (2R,3S,5R)-2-(2,5-difluorophenyl)-5-(5-(N-(4-methylbenzenesulfonyl)-S-methylsulfonimidoyl)-5,6-dihydropyrrolo[3,4-c]pyrrol-2(1H,3H,4H)-yl)tetrahydro-2H-pyran-3-amine]	< 0.01	

Further lines, with some results ahead:

IC50 [2] [µM]	Structure (SMILES)	change in vivo at 0.3 mg/kg [1] [%]
< 0.01	CS(=O)(=O)N1CCC2(CCN([C@H]3CO[C@H](c4cc(F)ccc4F)[C@@H](N)C3)C2)C1 (stereo partly drawn) [Compound 2, (2R,3S,5R)-2-(2,5-difluorophenyl)-5-(7-(methylsulfonyl)-2,7-diazaspiro[4.4]-nonan-2-yl)tetrahydro-2H-pyran-3-amine]	-25.7 ± 1.8
< 0.1	N[C@H]1C[C@@H](N2CC3CNCC3C2)CO[C@@H]1c1cc(F)ccc1F (stereo partly drawn) [Compound 4, (2R,3S,5R)-2-(2,5-difluorophenyl)-5-(hexahydropyrrolo[3,4-c]pyrrol-2(1H)-yl)tetrahydro-2H-pyran-3-amine]	-16.5 ± 3.8
< 0.1	N[C@H]1C[C@@H](N2CC3CN(S(=O)(=O)C(F)(F)F)CC3C2)CO[C@@H]1c1cc(F)ccc1F (stereo partly drawn) [Compound 5, (2R,3S,5R)-2-(2,5-difluorophenyl)-5-(5-((trifluoromethyl)sulfonyl)hexahydropyrrolo[3,4-c]pyrrol-2(1H)-yl)tetrahydro-2H-pyran-3-amine]	-7.6 ± 1.3
< 0.1	N[C@H]1C[C@@H](N2CC3CN(S(=O)(=O)c4ccccc4)CC3C2)CO[C@@H]1c1cc(F)ccc1F (stereo partly drawn) [Compound 6, (2R,3S,5R)-2-(2,5-difluorophenyl)-5-(5-(phenylsulfonyl)hexahydropyrrolo[3,4-c]pyrrol-2(1H)-yl)tetrahydro-2H-pyran-3-amine]	-7.3 ± 1.6
< 0.1	N[C@H]1C[C@@H](N2CC3C(=O)N(Cc4ccccc4)C(=O)C3C2)CO[C@@H]1c1cc(F)ccc1F (stereo partly drawn) [Compound 11, 5-((3R,5S,6R)-5-amino-6-(2,5-difluorophenyl)tetrahydro-2H-pyran-3-yl)-2-benzyltetrahydropyrrolo[3,4-c]pyrrole-1,3(2H,3aH)-dione]	-25.6 ± 3.2
